Molecular target: Dipeptidyl peptidase 1 (Homo sapiens, UniProt P53634)
Assay: In Vitro Inhibitory Assay
Experimental: The compound was diluted with DMSO to a 384-well echo plate at a concentration of 100× of the highest concentration at the beginning of the experiment. 0.2 μL of the diluted compound was pipetted to a black-bottomed 384-well reaction plate for later use. […] The solution was added to the black-bottom 384-well reaction plate ([…]). 10 μL of the buffer was added for the vehicle control group. The plate containing compounds in its wells was incubated at room temperature for 30 minutes.

Chain of Dipeptidyl peptidase 1 (P53634 25-134 limits assumed): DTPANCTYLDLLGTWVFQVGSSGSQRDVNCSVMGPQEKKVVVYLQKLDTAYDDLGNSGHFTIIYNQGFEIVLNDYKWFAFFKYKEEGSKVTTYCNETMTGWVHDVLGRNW
Chain of Dipeptidyl peptidase 1 (P53634 231-394 limits assumed): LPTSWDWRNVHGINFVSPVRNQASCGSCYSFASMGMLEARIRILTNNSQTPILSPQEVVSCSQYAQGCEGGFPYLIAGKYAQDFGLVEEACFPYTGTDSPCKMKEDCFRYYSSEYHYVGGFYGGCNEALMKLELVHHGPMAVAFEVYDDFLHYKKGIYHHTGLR
Chain of Dipeptidyl peptidase 1 (P53634 395-463 limits assumed): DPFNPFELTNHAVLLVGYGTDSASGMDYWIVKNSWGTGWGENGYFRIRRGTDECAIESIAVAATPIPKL

## N#C[C@H](Cc1ccc2c(c1)CC(=O)N(c1ccc(F)cc1)C2)NC(=O)C1(N)CCCCC1 [US20240083888, Compound 58]
  IC50: 17 nM
